# Measured values taken from PMC8185074, “Anchor extension: a structure-guided approach to design cyclic peptides targeting enzyme active sites” (Nature Communications, 2021).
# Several values for one entry are separate records, joined by “and”; a condition that tells them apart may be missing. Equal entries are not always repeated. Peptide text beside a SMILES is read from it.
# Key:
# Assay type in all cases: biochemical
# [1] = target: T1, HDAC6 (Homo sapiens, UniProt Q9UBN7); experiment: HDAC6 inhibition, full IC50 measurement (Reaction Biology; fluorogenic p53 peptide RHKK(Ac)AMC)
# T1 construct: purchased Reaction Biology Corporation (assay run by the CRO)
# T1 sequence (Q9UBN7 1-1215): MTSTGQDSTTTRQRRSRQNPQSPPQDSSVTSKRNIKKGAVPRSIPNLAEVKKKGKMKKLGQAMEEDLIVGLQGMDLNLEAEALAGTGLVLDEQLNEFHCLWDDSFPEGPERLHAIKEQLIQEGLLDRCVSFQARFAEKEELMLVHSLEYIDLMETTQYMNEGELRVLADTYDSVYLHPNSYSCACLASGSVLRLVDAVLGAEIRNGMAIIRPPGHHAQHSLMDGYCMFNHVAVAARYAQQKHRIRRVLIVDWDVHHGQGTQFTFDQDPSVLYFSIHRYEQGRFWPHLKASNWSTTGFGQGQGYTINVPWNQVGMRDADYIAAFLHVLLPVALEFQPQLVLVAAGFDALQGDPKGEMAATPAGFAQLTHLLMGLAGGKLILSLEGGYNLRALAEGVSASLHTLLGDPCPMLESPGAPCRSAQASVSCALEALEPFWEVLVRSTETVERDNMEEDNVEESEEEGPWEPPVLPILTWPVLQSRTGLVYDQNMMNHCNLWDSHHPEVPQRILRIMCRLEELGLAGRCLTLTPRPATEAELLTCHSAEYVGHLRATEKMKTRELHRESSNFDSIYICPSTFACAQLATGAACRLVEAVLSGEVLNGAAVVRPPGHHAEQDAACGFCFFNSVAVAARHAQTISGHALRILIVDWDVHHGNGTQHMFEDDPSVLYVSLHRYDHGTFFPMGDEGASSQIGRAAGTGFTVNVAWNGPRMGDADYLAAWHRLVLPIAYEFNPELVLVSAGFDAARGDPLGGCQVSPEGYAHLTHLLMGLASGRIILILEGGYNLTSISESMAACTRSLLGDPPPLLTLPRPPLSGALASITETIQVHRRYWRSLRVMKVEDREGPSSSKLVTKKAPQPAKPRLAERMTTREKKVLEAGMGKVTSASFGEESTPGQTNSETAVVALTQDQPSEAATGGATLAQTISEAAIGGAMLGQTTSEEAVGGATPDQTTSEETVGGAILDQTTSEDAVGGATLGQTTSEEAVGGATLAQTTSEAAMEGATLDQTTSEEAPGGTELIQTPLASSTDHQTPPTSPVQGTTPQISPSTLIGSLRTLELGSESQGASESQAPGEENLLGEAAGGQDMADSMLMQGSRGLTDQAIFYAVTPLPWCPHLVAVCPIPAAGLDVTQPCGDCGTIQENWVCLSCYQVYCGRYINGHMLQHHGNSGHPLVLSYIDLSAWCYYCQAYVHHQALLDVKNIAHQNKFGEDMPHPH
# Procedure, shortened: (§1)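 Test peptides were dispensed acoustically with enzyme in 50 mM Tris-HCl pH 8.0, 137 mM NaCl, 2.7 mM KCl, 1 mM MgCl2, 1 mg/ml BSA and 1% DMSO. After adding 50 μM RHKK(Ac)AMC, reactions ran 1 h at 30 °C, then developer was added.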
# [2] = target: T2, HDAC3 (Homo sapiens, UniProt O15379); experiment: HDAC3 inhibition, full IC50 measurement (Reaction Biology; fluorogenic p53 peptide RHKK(Ac)AMC)
# T2 construct: purchased Reaction Biology Corporation (assay run by the CRO)
# T2 sequence (O15379 whole entry): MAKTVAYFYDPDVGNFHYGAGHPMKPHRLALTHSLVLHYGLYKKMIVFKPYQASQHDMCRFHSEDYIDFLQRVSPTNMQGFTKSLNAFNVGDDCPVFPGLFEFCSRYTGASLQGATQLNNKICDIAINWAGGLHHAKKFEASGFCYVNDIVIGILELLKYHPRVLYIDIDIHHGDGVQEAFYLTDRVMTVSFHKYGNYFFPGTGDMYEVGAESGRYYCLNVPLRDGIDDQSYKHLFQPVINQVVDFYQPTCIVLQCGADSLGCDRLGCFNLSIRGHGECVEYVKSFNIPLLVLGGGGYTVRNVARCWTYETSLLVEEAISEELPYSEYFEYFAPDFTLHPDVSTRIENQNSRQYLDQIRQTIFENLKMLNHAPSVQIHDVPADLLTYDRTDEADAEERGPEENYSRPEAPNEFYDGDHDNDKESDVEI
# T2 sequence (Q9Y618 395-489 partner limits assumed): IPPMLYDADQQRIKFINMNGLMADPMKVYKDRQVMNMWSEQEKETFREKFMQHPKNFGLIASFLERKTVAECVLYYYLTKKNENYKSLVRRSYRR
# Procedure, shortened: as §1
# [3] = target: T3, HDAC2 (Homo sapiens, UniProt Q92769); experiment: Initial HDAC2 IC50 estimate (BPS Biosciences HDAC fluorogenic assay kit); settings: Supplementary Dataset 2; read-out: HDAC2 activity (initial activity)
# T3 construct: purchased Reaction Biology Corporation (assay run by the CRO)
# T3 sequence (Q92769 whole entry): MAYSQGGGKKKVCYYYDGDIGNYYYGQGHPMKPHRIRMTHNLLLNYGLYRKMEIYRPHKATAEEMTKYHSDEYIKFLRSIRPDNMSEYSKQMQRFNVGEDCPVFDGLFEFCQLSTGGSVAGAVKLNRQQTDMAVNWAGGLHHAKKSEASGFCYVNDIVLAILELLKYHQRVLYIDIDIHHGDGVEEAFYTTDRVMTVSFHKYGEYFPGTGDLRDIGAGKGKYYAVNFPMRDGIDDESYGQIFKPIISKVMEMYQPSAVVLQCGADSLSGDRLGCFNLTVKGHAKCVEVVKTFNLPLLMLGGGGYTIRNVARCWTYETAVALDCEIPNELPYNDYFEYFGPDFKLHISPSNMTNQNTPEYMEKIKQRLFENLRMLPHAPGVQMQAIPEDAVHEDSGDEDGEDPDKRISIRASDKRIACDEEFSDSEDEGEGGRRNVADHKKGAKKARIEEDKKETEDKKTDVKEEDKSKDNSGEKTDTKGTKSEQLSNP
# Procedure, shortened: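 Inhibition measured by kit-based fluorogenic HDAC activity assays, with each point in duplicate or triplicate. Values come from a full 1 µM–100 pM series (1:10 steps) or are range estimates from just 20 nM and 200 nM.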
smiles,measurement,setting,value
"CCCC[C@H]1NC(=O)[C@H](Cc2ccccc2)NC(=O)[C@H](CCCCCS)NC(=O)[C@@H](CCCNC(=N)N)NC(=O)[C@H](CC(=O)O)NC(=O)[C@@H](CO)NC(=O)[C@@H](C)NC(=O)[C@H](CCCCN)NC1=O [des4.3.1, SHA-Phe-dNle-Lys-dAla-dSer-Asp-dArg] (HELM PEPTIDE1{D.[dR].[O=C([C@H](CCCCCS)N[*:1])[*:2]].F.[CCCC[C@@H](N[*:1])C(=O)[*:2]].K.[dA].[dS]}$PEPTIDE1,PEPTIDE1,1:R1-8:R2$$$V2.0)",6-Selectivity: fold potency for HDAC6 over HDAC2,[1],88.2 fold and 88 fold
same,HDAC6 activity raw data (signal),"[1]; Conc. 1.00E-05 M, t1",5754
same,HDAC6 activity raw data (signal),"[1]; Conc. 1.00E-05 M, t2",4634
same,HDAC6 activity raw data (signal),"[1]; Conc. 1.11E-06 M, t1",10293
same,HDAC6 activity raw data (signal),"[1]; Conc. 1.11E-06 M, t2",17466
same,HDAC6 activity raw data (signal),"[1]; Conc. 1.23E-07 M, t1",97345
same,HDAC6 activity raw data (signal),"[1]; Conc. 1.23E-07 M, t2",90888
same,HDAC6 activity raw data (signal),"[1]; Conc. 1.37E-08 M, t1",307015
same,HDAC6 activity raw data (signal),"[1]; Conc. 1.37E-08 M, t2",326589
same,HDAC6 activity raw data (signal),"[1]; Conc. 1.52E-09 M, t1",510826
same,HDAC6 activity raw data (signal),"[1]; Conc. 1.52E-09 M, t2",490649
same,HDAC6 activity raw data (signal),"[1]; Conc. 3.33E-06 M, t1",6046
same,HDAC6 activity raw data (signal),"[1]; Conc. 3.33E-06 M, t2",6920
same,HDAC6 activity raw data (signal),"[1]; Conc. 3.70E-07 M, t1",48261
same,HDAC6 activity raw data (signal),"[1]; Conc. 3.70E-07 M, t2",37034
same,HDAC6 activity raw data (signal),"[1]; Conc. 4.12E-08 M, t1",179198
same,HDAC6 activity raw data (signal),"[1]; Conc. 4.12E-08 M, t2",202702
same,HDAC6 activity raw data (signal),"[1]; Conc. 4.57E-09 M, t1",433664
same,HDAC6 activity raw data (signal),"[1]; Conc. 4.57E-09 M, t2",442171
same,HDAC6 activity raw data (signal),"[1]; Conc. 5.08E-10 M, t1",531205
same,HDAC6 activity raw data (signal),"[1]; Conc. 5.08E-10 M, t2",556727
same,IC50,"[1]; figure legends, Supp. Tables 1 and 8, read-out: HDAC6 IC50",17.1 nM
same,HDAC3 activity raw data (signal),"[2]; Conc. 1.00E-05 M, t1",46115
same,HDAC3 activity raw data (signal),"[2]; Conc. 1.00E-05 M, t2",35378
same,HDAC3 activity raw data (signal),"[2]; Conc. 1.11E-06 M, t1",372696
same,HDAC3 activity raw data (signal),"[2]; Conc. 1.11E-06 M, t2",416274
same,HDAC3 activity raw data (signal),"[2]; Conc. 1.23E-07 M, t1",1045370
same,HDAC3 activity raw data (signal),"[2]; Conc. 1.23E-07 M, t2",1070696
same,HDAC3 activity raw data (signal),"[2]; Conc. 1.37E-08 M, t1",1250439
same,HDAC3 activity raw data (signal),"[2]; Conc. 1.37E-08 M, t2",1300529
same,HDAC3 activity raw data (signal),"[2]; Conc. 1.52E-09 M, t1",1121419
same,HDAC3 activity raw data (signal),"[2]; Conc. 1.52E-09 M, t2",1274974
same,HDAC3 activity raw data (signal),"[2]; Conc. 3.33E-06 M, t1",172249
same,HDAC3 activity raw data (signal),"[2]; Conc. 3.33E-06 M, t2",152173
same,HDAC3 activity raw data (signal),"[2]; Conc. 3.70E-07 M, t1",787295
same,HDAC3 activity raw data (signal),"[2]; Conc. 3.70E-07 M, t2",779442
same,HDAC3 activity raw data (signal),"[2]; Conc. 4.12E-08 M, t1",1318255
same,HDAC3 activity raw data (signal),"[2]; Conc. 4.12E-08 M, t2",1249169
same,HDAC3 activity raw data (signal),"[2]; Conc. 4.57E-09 M, t1",1278679
same,HDAC3 activity raw data (signal),"[2]; Conc. 4.57E-09 M, t2",1136444
same,HDAC3 activity raw data (signal),"[2]; Conc. 5.08E-10 M, t1",1099296
same,HDAC3 activity raw data (signal),"[2]; Conc. 5.08E-10 M, t2",1140869
same,IC50,[3],350 nM
